Laboratory results reported in patent US7473702B2, “Substituted gamma lactams as therapeutic agents” (Allergan, Inc., priority 2005, dated 2009).

Assays:
EP2 [1] = biological target: T1, EP2 (Homo sapiens, UniProt P43116); assay: EP2 cAMP EC50; assay type: cell-based
From the text: (§1) U.S. patent application Ser. No. 11/553,143, filed on Oct. 26, 2006, incorporated by reference herein, describes the methods used to obtain the in vitro data in the table below.

EP2 [2] = biological target: T1, EP2; assay: EP2 binding Ki
From the text: as §1

hEP3A = biological target: T2, hEP3A (Homo sapiens, UniProt P43115); assay: Other receptors functional EC50, hEP3A; assay type: cell-based
T2 sequence (P43115 1-390): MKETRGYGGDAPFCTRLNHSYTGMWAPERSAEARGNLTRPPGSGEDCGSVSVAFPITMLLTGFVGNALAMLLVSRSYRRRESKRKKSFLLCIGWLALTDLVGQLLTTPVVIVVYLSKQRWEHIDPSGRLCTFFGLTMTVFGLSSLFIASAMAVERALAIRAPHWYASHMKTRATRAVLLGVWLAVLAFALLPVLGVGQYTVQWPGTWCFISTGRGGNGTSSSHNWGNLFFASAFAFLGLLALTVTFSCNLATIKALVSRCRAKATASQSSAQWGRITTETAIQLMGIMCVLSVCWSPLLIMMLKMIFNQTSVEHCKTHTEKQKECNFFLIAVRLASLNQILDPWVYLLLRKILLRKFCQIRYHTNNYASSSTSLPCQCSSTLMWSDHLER
From the text: as §1

hDP = biological target: T3, hDP (Homo sapiens, UniProt Q13258); assay: Other receptors functional EC50, hDP; assay type: cell-based
T3 sequence (Q13258 1-359): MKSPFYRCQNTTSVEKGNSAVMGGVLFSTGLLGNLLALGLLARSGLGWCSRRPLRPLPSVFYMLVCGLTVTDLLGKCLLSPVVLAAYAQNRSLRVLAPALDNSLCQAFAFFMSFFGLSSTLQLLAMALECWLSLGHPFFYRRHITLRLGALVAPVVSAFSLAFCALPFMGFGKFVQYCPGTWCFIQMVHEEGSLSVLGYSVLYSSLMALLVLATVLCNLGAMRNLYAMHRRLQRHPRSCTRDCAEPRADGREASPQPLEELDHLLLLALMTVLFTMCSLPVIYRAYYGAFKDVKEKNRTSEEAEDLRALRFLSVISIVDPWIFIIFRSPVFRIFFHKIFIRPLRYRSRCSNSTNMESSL
From the text: as §1

EP2 [3] = biological target: T1, EP2; assay: EP2 flipr EC50; assay type: cell-based
From the text: as §1

hTP = biological target: T4, hTP (Homo sapiens, UniProt P21731); assay: Other receptors functional EC50, hTP; assay type: cell-based
T4 sequence (P21731 1-343): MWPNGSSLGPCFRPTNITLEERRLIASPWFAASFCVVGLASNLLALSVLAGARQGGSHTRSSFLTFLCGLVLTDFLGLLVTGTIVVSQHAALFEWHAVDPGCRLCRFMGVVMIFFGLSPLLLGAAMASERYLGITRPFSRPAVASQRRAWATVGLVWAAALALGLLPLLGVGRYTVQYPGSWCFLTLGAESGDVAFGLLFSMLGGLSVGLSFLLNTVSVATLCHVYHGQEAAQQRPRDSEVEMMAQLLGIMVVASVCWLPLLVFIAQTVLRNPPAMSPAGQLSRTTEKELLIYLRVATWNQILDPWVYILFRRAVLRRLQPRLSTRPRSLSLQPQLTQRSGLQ
From the text: as §1

T1 sequence (P43116 whole entry): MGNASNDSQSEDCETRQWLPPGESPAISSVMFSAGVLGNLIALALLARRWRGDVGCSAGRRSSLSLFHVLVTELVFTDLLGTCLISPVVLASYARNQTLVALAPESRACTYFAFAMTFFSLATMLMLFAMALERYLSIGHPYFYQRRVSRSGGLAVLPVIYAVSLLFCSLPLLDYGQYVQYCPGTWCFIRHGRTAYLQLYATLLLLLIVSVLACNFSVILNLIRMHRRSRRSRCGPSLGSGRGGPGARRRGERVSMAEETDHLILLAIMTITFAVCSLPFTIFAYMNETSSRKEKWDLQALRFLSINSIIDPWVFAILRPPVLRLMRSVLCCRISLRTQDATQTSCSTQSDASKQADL

| EC50 (EP2 [1]) [nM] | Ki (EP2 [2]) [nM] | EC50 (hEP3A) [nM] | EC50 (hDP) [nM] | EC50 (EP2 [3]) [nM] | EC50 (hTP) [nM] | Compound |
| --- | --- | --- | --- | --- | --- | --- |
| 73 | 1420 | 2070 | > 10000 |  |  | CCCCC[C@H](O)c1ccc(N2C(=O)CC[C@@H]2C/C=C/c2ccc(C(=O)O)s2)cc1 |
| 0.75 | 43 | 43 | 1850 | 17 |  | CCCCCC(O)c1ccc(N2C(=O)CC[C@@H]2C/C=C\c2nc(C(=O)O)cs2)cc1 (stereo partly drawn) |
| 19 | 824 |  | > 10000 | 23 |  | CCCCC[C@H](O)c1ccc(N2C(=O)CC[C@@H]2/C=C\Cc2ccc(C(=O)O)s2)cc1 |
| 24 | 2180 | 2980 | > 10000 |  | > 10000 | CCCCCC(O)c1ccc(N2C(=O)CC[C@@H]2C/C=C/c2nc(C(=O)O)cs2)cc1 (stereo partly drawn) |
